Test results: patent publication US4312867A, “Antibacterial compounds, processes for their preparation and compositions containing them” (Beecham Group Limited, priority 1979, dated 1982)
In brackets after ≈: the same amount, converted by molar mass.

test system: Strep suis (group D) SPS11; test: MIC veterinary bacteria (Table 2), serial dilution in agar; format: cell-based; details: diagnostic sensitivity test agar

Structure (SMILES)	MIC [µg/mL]
C/C(=C\C(=O)OCCCCCCCCS(N)(=O)=O)CC1OCC(CC2OC2C(C)C(C)O)C(O)C1O (stereo not shown) [Example 3, 8-Sulphamoyloctyl monate A]	20 (≈ 37.3 µM)

test system: S. typhimurium S18; test: as above; format: cell-based; details: Salmonella enterica, diagnostic sensitivity test agar

Structure (SMILES)	MIC [µg/mL]
C/C(=C\C(=O)OCCCCCCCCS(N)(=O)=O)CC1OCC(CC2OC2C(C)C(C)O)C(O)C1O (stereo not shown) [Example 3, 8-Sulphamoyloctyl monate A]	> 80

test system: Erysipelothrix rhusiopathiae NCTC 8163; test: as above; format: cell-based; details: NCTC8163; Erysipelothrix rhusiopathiae NCTC 8163; diagnostic sensitivity test agar; read-out: MIC

Structure (SMILES)	MIC [µg/mL]
C/C(=C\C(=O)OCCCCCCCCS(N)(=O)=O)CC1OCC(CC2OC2C(C)C(C)O)C(O)C1O (stereo not shown) [Example 3, 8-Sulphamoyloctyl monate A]	10 (≈ 18.7 µM)

test system: Pasteurella multocida 1633; test: MIC human bacteria (Table 1), serial dilution in nutrient agar; format: cell-based; details: Pasteurella multocida, 1633

Structure (SMILES)	MIC [µg/mL]
C/C(=C\C(=O)OCCCCCCCCS(N)(=O)=O)CC1OCC(CC2OC2C(C)C(C)O)C(O)C1O (stereo not shown) [Example 3, 8-Sulphamoyloctyl monate A]	1 (≈ 1.87 µM)

test system: Staph aureus W2827; test: as above; format: cell-based; details: Staphylococcus aureus, nutrient agar with 5% chocolated horse blood

Structure (SMILES)	MIC [µg/mL]
C/C(=C\C(=O)OCCCCCCCCS(N)(=O)=O)CC1OCC(CC2OC2C(C)C(C)O)C(O)C1O (stereo not shown) [Example 3, 8-Sulphamoyloctyl monate A]	1 (≈ 1.87 µM)

test system: E. coli ESS; test: as above; format: cell-based; details: Escherichia coli; E. coli ESS; nutrient agar with 5% chocolated horse blood; read-out: MIC

Structure (SMILES)	MIC [µg/mL]
C/C(=C\C(=O)OCCCCCCCCS(N)(=O)=O)CC1OCC(CC2OC2C(C)C(C)O)C(O)C1O (stereo not shown) [Example 3, 8-Sulphamoyloctyl monate A]	0.5 (≈ 0.933 µM)

test system: Staph aureus B4 (pen. resis); test: MIC veterinary bacteria (Table 2), serial dilution in agar; format: cell-based; details: Staphylococcus aureus; Staph aureus B4 (pen. resis); diagnostic sensitivity test agar; read-out: MIC

Structure (SMILES)	MIC [µg/mL]
C/C(=C\C(=O)OCCCCCCCCS(N)(=O)=O)CC1OCC(CC2OC2C(C)C(C)O)C(O)C1O (stereo not shown) [Example 3, 8-Sulphamoyloctyl monate A]	0.625 (≈ 1.17 µM)

test system: Haemophilus influenzae Wy21; test: MIC human bacteria (Table 1), serial dilution in nutrient agar; format: cell-based; details: Haemophilus influenzae Wy21; nutrient agar with 5% chocolated horse blood; read-out: MIC

Structure (SMILES)	MIC [µg/mL]
C/C(=C\C(=O)OCCCCCCCCS(N)(=O)=O)CC1OCC(CC2OC2C(C)C(C)O)C(O)C1O (stereo not shown) [Example 3, 8-Sulphamoyloctyl monate A]	0.2 (≈ 0.373 µM)

test system: Sarcina lutea 8340; test: as above; format: cell-based; details: Micrococcus luteus, nutrient agar with 5% chocolated horse blood, read-out: MIC

Structure (SMILES)	MIC [µg/mL]
C/C(=C\C(=O)OCCCCCCCCS(N)(=O)=O)CC1OCC(CC2OC2C(C)C(C)O)C(O)C1O (stereo not shown) [Example 3, 8-Sulphamoyloctyl monate A]	> 100

test system: Haemophilus influenzae Q1; test: as above; format: cell-based; details: Haemophilus influenzae Q1; nutrient agar with 5% chocolated horse blood; read-out: MIC

Structure (SMILES)	MIC [µg/mL]
C/C(=C\C(=O)OCCCCCCCCS(N)(=O)=O)CC1OCC(CC2OC2C(C)C(C)O)C(O)C1O (stereo not shown) [Example 3, 8-Sulphamoyloctyl monate A]	0.2 (≈ 0.373 µM)

test system: Strep pyogenes C 2761; test: as above; format: cell-based; details: nutrient agar with 5% chocolated horse blood

Structure (SMILES)	MIC [µg/mL]
C/C(=C\C(=O)OCCCCCCCCS(N)(=O)=O)CC1OCC(CC2OC2C(C)C(C)O)C(O)C1O (stereo not shown) [Example 3, 8-Sulphamoyloctyl monate A]	1 (≈ 1.87 µM)

test system: Bacillus subtilis 6633; test: as above; format: cell-based; details: nutrient agar with 5% chocolated horse blood

Structure (SMILES)	MIC [µg/mL]
C/C(=C\C(=O)OCCCCCCCCS(N)(=O)=O)CC1OCC(CC2OC2C(C)C(C)O)C(O)C1O (stereo not shown) [Example 3, 8-Sulphamoyloctyl monate A]	0.2 (≈ 0.373 µM)

test system: Strep faecalis I; test: as above; format: cell-based; details: nutrient agar with 5% chocolated horse blood

Structure (SMILES)	MIC [µg/mL]
C/C(=C\C(=O)OCCCCCCCCS(N)(=O)=O)CC1OCC(CC2OC2C(C)C(C)O)C(O)C1O (stereo not shown) [Example 3, 8-Sulphamoyloctyl monate A]	> 100

test system: Staph aureus Oxford; test: as above; format: cell-based; details: Staphylococcus aureus, nutrient agar with 5% chocolated horse blood

Structure (SMILES)	MIC [µg/mL]
C/C(=C\C(=O)OCCCCCCCCS(N)(=O)=O)CC1OCC(CC2OC2C(C)C(C)O)C(O)C1O (stereo not shown) [Example 3, 8-Sulphamoyloctyl monate A]	1 (≈ 1.87 µM)

test system: M hyorhinis ATCC 23234; test: in vitro anti-mycoplasmal MIC, Friis' agar (Table 3); format: cell-based; details: not given
Description: The minimum inhibitory concentrations (MIC) of the examples were determined by either:
or (ii) by serial dilution in Friis' agar medium.

Structure (SMILES)	MIC [µg/mL]
C/C(=C\C(=O)OCCCCCCCCS(N)(=O)=O)CC1OCC(CC2OC2C(C)C(C)O)C(O)C1O (stereo not shown) [Example 3, 8-Sulphamoyloctyl monate A]	0.312 (≈ 0.582 µM)

test system: Staph aureus Russell; test: MIC human bacteria (Table 1), serial dilution in nutrient agar; format: cell-based; details: Staphylococcus aureus, nutrient agar with 5% chocolated horse blood

Structure (SMILES)	MIC [µg/mL]
C/C(=C\C(=O)OCCCCCCCCS(N)(=O)=O)CC1OCC(CC2OC2C(C)C(C)O)C(O)C1O (stereo not shown) [Example 3, 8-Sulphamoyloctyl monate A]	1 (≈ 1.87 µM)

test system: E. coli NCTC 10418; test: as above; format: cell-based; details: Escherichia coli, NCTC10418; E. coli NCTC 10418; nutrient agar with 5% chocolated horse blood; read-out: MIC

Structure (SMILES)	MIC [µg/mL]
C/C(=C\C(=O)OCCCCCCCCS(N)(=O)=O)CC1OCC(CC2OC2C(C)C(C)O)C(O)C1O (stereo not shown) [Example 3, 8-Sulphamoyloctyl monate A]	> 100

test system: Bord bronchiseptica B09; test: MIC veterinary bacteria (Table 2), serial dilution in agar; format: cell-based; details: diagnostic sensitivity test agar

Structure (SMILES)	MIC [µg/mL]
C/C(=C\C(=O)OCCCCCCCCS(N)(=O)=O)CC1OCC(CC2OC2C(C)C(C)O)C(O)C1O (stereo not shown) [Example 3, 8-Sulphamoyloctyl monate A]	40 (≈ 74.7 µM)

test system: Ps. aeruginosa 10662; test: MIC human bacteria (Table 1), serial dilution in nutrient agar; format: cell-based; details: Pseudomonas aeruginosa, nutrient agar with 5% chocolated horse blood

Structure (SMILES)	MIC [µg/mL]
C/C(=C\C(=O)OCCCCCCCCS(N)(=O)=O)CC1OCC(CC2OC2C(C)C(C)O)C(O)C1O (stereo not shown) [Example 3, 8-Sulphamoyloctyl monate A]	> 100
